Source: US20220024882A1, “NOVEL TUMOR ANTIGEN BINDING AGENTS AND USES THEREOF” (ITM Isotopen Technologien München AG, priority 2018, published 2022)
Several values for one entry are separate records, joined by “and”; a condition that tells them apart may be missing. Equal values may be shown once.

Legend:
[1] = test system: PC-3 PIP/flu tumor-bearing mice; assay: Biodistribution study in PC-3 PIP/flu tumor-bearing mice; type: in vivo, athymic nude Balb/c mice; conditions: for Blood / Bone / Heart / Intestines / Kidneys / Liver / Lung / Muscle / Salivary glands / Spleen / Stomach / Tumor-to-blood / Tumor-to-kidney / Tumor-to-liver: PC-3 PIP/flu tumor-bearing mice; for PC-3 flu Tumor: PSMA-negative tumor xenograft; for PC-3 flu Tumor / PC-3 PIP Tumor: mice; for PC-3 PIP Tumor: PSMA-positive tumor xenograft
Experimental: (§1) In vivo experiments were approved by the local veterinarian department and conducted in accordance with the Swiss law of animal protection. Mice were obtained from Charles River Laboratories, Sulzfeld, Germany, at the age of 5-6 weeks. Female, athymic nude Balb/c mice were subcutaneously inoculated with PSMA-positive PC-3 PIP cells (6×10^6 cells in 100 μL Hank's balanced salt solution (HBSS) with Ca^2+/Mg^2+) on the right shoulder and with PSMA-negative PC-3 flu cells (5×10^6 cells in 100 μL HBSS Ca^2+/Mg^2+) on the left shoulder. Two weeks later, the tumors reached a size of about 80-300 mm^3 suitable for the performance of the biodistribution studies.
Biodistribution studies were performed 12-15 days after PC-3 PIP/flu tumor cell inoculation. […] The radioligands were injected in a lateral tail vein in a volume of 100-200 μL. Mice were euthanized at different time points after injection (p.i.) of the radioligands. Selected tissues and organs were collected, weighed and measured using a γ-counter. The results were decay-corrected and listed as a percentage of the injected activity per gram of tissue mass (% IA/g) (Table 3 and 4).
Mice were obtained from Charles River Laboratories, Sulzfeld, Germany, at the age of 5-6 weeks. Female, athymic nude BALB/c mice were subcutaneously inoculated with PSMA-positive PC-3 PIP cells (6×10^6 cells in 100 μL Hank's balanced salt solution (HBSS)) on the right shoulder and with PSMA-negative PC-3 flu cells (5×10^6 cells in 100 μL HBSS) on the left shoulder. Two weeks later, the tumors reached a size of about 80-300 mm^3 suitable for the performance of the biodistribution and imaging studies.
Biodistribution studies were performed 12-15 days after PC-3 PIP/flu tumor cell inoculation. ^177Lu-Ibu-sPSMA was diluted in 0.9% NaCl containing 0.05% bovine serum albumin (BSA) to prevent adhesion to the vial and syringe material. The radioligand was injected in a lateral tail vein in a volume of 100 μL. Mice were euthanized at different time points after injection (p.i.) of the radioligand. Selected tissues and organs were collected, weighed and measured using a γ-counter. The results were decay-corrected and listed as a percentage of the injected activity per gram of tissue mass (% IA/g) (Table 6, FIG. 18).

[2] = Whole-body activity measurements, tumor-bearing mice; type: in vivo, athymic nude Balb/c mice; conditions: 4 h p.i., 30 MBq, 1 nmol i.v., activity right after injection = 100%
Experimental: as §1, with “imaging” for “biodistribution”
The single radioligands (specific activity: 30 MBq/nmol) were diluted in 0.9% NaCl containing 0.05% bovine serum albumin (BSA) and i.v. injected into PC-3 PIP/flu tumor bearing mice (30 MBq, 1 nmol, 100 μL) for SPECT/CT imaging purposes. The mice were measured in a dose calibrator at 4 h, 24 h, 48 h and 72 h p.i., respectively.

## CC(C)Cc1ccc(C(C)C(=O)NC(CC(=O)NCCCCC(NC(=O)CN2CCN(CC(=O)O)CCN(CC(=O)O)CCN(CC(=O)O)CC2)C(=O)NCC2CCC(C(=O)NC(Cc3ccc4ccccc4c3)C(=O)NCCCCC(NC(=O)NC(CCC(=O)O)C(=O)O)C(=O)O)CC2)C(=O)O)cc1 (stereo not drawn) [^177Lu-Ibu-Dβ-PSMA, metal not drawn]
[1]; 4 h p.i.
  Blood: 13.2±1.15 % IA/g
  Bone: 1.87 ± 0.16 % IA/g
  Heart: 4.19 ± 0.23 % IA/g
  Intestines: 1.81 ± 0.23 % IA/g
  Kidneys: 32.2 ± 2.46 % IA/g
  Liver: 3.87 ± 0.16 % IA/g
  Lung: 8.55 ± 3.30 % IA/g
  Muscle: 1.79 ± 0.48 % IA/g
  Salivary glands: 3.33 ± 0.15 % IA/g
  Spleen: 2.60 ± 0.23 % IA/g
  Stomach: 1.51 ± 0.18 % IA/g
  Tumor-to-blood: 5.03±0.73
  Tumor-to-kidney: 2.06 ± 0.23
  Tumor-to-liver: 17.0 ± 1.73
  PC-3 flu Tumor: 3.86 ± 0.18 % IA/g
  PC-3 PIP Tumor: 65.7 ± 7.31 % IA/g
[1]; 24 h p.i.
  Blood: 1.28 ± 0.05 % IA/g
  Bone: 0.26 ± 0.03 % IA/g
  Heart: 0.57 ± 0.02 % IA/g
  Intestines: 0.40 ± 0.07 % IA/g
  Kidneys: 21.3 ± 1.53 % IA/g
  Liver: 0.69 ± 0.07 % IA/g
  Lung: 1.17 ± 0.06 % IA/g
  Muscle: 0.22 ± 0.04 % IA/g
  Salivary glands: 0.61 ± 0.02 % IA/g
  Spleen: 1.03 ± 0.08 % IA/g
  Stomach: 0.48 ± 0.13 % IA/g
  Tumor-to-blood: 83.6 ± 9.06
  Tumor-to-kidney: 4.90 ± 0.29
  Tumor-to-liver: 151 ± 3.37
  PC-3 flu Tumor: 0.79 ± 0.12 % IA/g
  PC-3 PIP Tumor: 106±9.70 % IA/g
[2]
  whole-body retention of radioactivity: 49%

## CC(C)Cc1ccc(C(C)C(=O)NCCCCC(NC(=O)CN2CCN(CC(=O)O)CCN(CC(=O)O)CCN(CC(=O)O)CC2)C(=O)NCC2CCC(C(=O)NC(Cc3ccc4ccccc4c3)C(=O)NCCCCC(NC(=O)NC(CCC(=O)O)C(=O)O)C(=O)O)CC2)cc1 (stereo not drawn) [^177Lu-Ibu-PSMA, metal not drawn]
[1]; 4 h p.i.
  Blood: 5.96 ± 1.53 % IA/g
  Bone: 1.01 ± 0.18 % IA/g
  Heart: 2.28 ± 0.68 % IA/g
  Intestines: 1.00 ± 0.27 % IA/g
  Kidneys: 32.5 ± 0.86 % IA/g
  Liver: 2.77 ± 0.43 % IA/g
  Lung: 3.72 ± 0.73 % IA/g
  Muscle: 0.97 ± 0.37 % IA/g
  Salivary glands: 1.66 ± 0.36 % IA/g
  Spleen: 1.76 ± 0.23 % IA/g
  Stomach: 0.79 ± 0.26 % IA/g
  Tumor-to-blood: 14.1 ± 2.25
  Tumor-to-kidney: 2.60 ± 0.08
  Tumor-to-liver: 29.7 ± 3.11
  PC-3 flu Tumor: 2.19 ± 0.52 % IA/g
  PC-3 PIP Tumor: 81.3±6.28 % IA/g
[1]; 24 h p.i.
  Blood: 0.58 ± 0.09 % IA/g
  Bone: 0.20 ± 0.04 % IA/g
  Heart: 0.33 ± 0.06 % IA/g
  Intestines: 0.23 ± 0.04 % IA/g
  Kidneys: 16.5 ± 1.48 % IA/g
  Liver: 0.91 ± 0.12 % IA/g
  Lung: 0.62 ± 0.12 % IA/g
  Muscle: 0.12 ± 0.04 % IA/g
  Salivary glands: 0.34 ± 0.07 % IA/g
  Spleen: 0.68 ± 0.15 % IA/g
  Stomach: 0.23 ± 0.02 % IA/g
  Tumor-to-blood: 149 ± 16.7
  Tumor-to-kidney: 5.36 ± 0.73
  Tumor-to-liver: 95.4 ± 10.6
  PC-3 flu Tumor: 0.58 ± 0.19 % IA/g
  PC-3 PIP Tumor: 86.8±18.0 % IA/g and 86.9 ± 18.0 % IA/g
[2]
  whole-body retention of radioactivity: 33%
